Molecules are shown by their SMILES.

By IC50 is commonly meant the concentration needed to halve the response being measured. A low value points to inhibition by little substance.

Assay [1] is described as follows: Inhibition of IL-6 (unknown origin) by ELISA assay.
The nature of assay [2]: Inhibition of TNF-alpha (unknown origin) by ELISA assay. For orientation: In an ELISA, binding on a coated surface is turned into a signal by an enzyme label.

For `CCOP(=O)(OCC)SCCSCC`, the IC50 was determined as 600 nM in assay [1] and 1160 nM in assay [2].
`CCSCCSP(=O)(OC)OC`: the IC50 came out at 13800 nM in assay [1] and 20600 nM in assay [2].
The like results for `CC(C)=CCN1Cc2cc(C)cc3[nH]c(=S)n(c23)CC1C` (centres undefined) were, in that order, 2000 nM and 629 nM.
Take `CCOC(=O)C1=C(C)N=c2s/c(=C\c3ccc(N4CCOCC4)cc3)c(=O)n2C1c1ccccc1` (centres undefined): the IC50 was 860 nM in assay [1] and 3310 nM in assay [2].
In the case of `CC(C)=CCN1Cc2cc(Cl)c(Cl)c3nc(S)n(c23)C[C@@H]1C`, the IC50 in assay [1] was 1280 nM; in assay [2] it was 1420 nM.
For the compound `COP(=O)(OC)Oc1ccc([N+](=O)[O-])cc1`, the figures for the IC50 in assay [1] and in assay [2] were 560 nM and 890 nM, respectively.
On to `CCCC[C@@H]1OC(=O)C2=CCCC[C@H]21`, for which the IC50 turned out to be 1630 nM in assay [1] and 6380 nM in assay [2].

Values taken from BindingDB's records for PubMed 32916382 (Zhejiang University, 2020).
